# Data reported in ChEMBL document CHEMBL1201862, “PubChem BioAssay data set” (2004).
# Structures can show the parent of a compound that is named as a salt. Calls of active or inactive are those of the source.
# Columns and labels:
# [1] = biological target: Protein kinase C theta type (Homo sapiens, UniProt Q04759); assay: Navigating the Kinome. Panel member name: PRKCQ; type: functional
# [2] = biological target: Serine/threonine-protein kinase D2 (Homo sapiens, UniProt Q9BZL6); type: functional;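 also: measured against PRKD2 as one member of a kinome-wide kinase profiling panel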
# [3] = biological target: Serine/threonine-protein kinase pim-1 (Homo sapiens, UniProt P11309); type: functional
# [4] = biological target: Mitogen-activated protein kinase 9 (Homo sapiens, UniProt P45984); type: functional;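 also: value from a kinome panel profiling assay, MAPK9 panel entry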
# [5] = biological target: LIM domain kinase 1 (Homo sapiens, UniProt P53667); assay: Navigating the Kinome. Panel member name: LIMK1; type: functional
# [6] = biological target: MAP kinase-activated protein kinase 3 (Homo sapiens, UniProt Q16644); type: functional;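 also: value comes from a kinome-wide profiling panel in which MAPKAPK3 is one of the panel members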
# [7] = biological target: Misshapen-like kinase 1 (Homo sapiens, UniProt Q8N4C8); type: functional;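 also: kinome panel screen with MINK as the panel member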
# [8] = biological target: Serine/threonine-protein kinase Nek4 (Homo sapiens, UniProt P51957); type: functional
# [9] = biological target: Tyrosine-protein kinase Fyn (Homo sapiens, UniProt P06241); type: functional
# [10] = biological target: Cyclin-dependent kinase 8 (Homo sapiens, UniProt P49336); assay: Navigating the Kinome. Panel member name: CDK8; type: functional
# [11] = biological target: Cyclin-dependent kinase 7 (Homo sapiens, UniProt P50613); type: functional;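 also: value comes from a kinome-wide kinase profiling panel in which CDK7 is one member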
# [12] = biological target: Dual specificity protein kinase CLK4 (Homo sapiens, UniProt Q9HAZ1); type: functional
# [13] = biological target: Dual specificity tyrosine-phosphorylation-regulated kinase 1A (Homo sapiens, UniProt Q13627); type: functional;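 also: measured against DYRK1A as one member of a broad kinome profiling panel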
# [14] = biological target: CAAX prenyl protease 1 (Saccharomyces cerevisiae S288c, UniProt P47154); assay: Ste24 protease inhibitors, dose response, biochemical, S. cerevisiae, plate reader, cherry-pick (AID 488815)
# [15] = biological target: T1, Insulin-degrading enzyme (Homo sapiens, UniProt P14735); assay: activators of recombinant IDE enzyme, dose response, counter-screen for IDE activator project, biochemical, fluorescence polarization (AID 588681)
# T1 sequence (P14735 whole entry): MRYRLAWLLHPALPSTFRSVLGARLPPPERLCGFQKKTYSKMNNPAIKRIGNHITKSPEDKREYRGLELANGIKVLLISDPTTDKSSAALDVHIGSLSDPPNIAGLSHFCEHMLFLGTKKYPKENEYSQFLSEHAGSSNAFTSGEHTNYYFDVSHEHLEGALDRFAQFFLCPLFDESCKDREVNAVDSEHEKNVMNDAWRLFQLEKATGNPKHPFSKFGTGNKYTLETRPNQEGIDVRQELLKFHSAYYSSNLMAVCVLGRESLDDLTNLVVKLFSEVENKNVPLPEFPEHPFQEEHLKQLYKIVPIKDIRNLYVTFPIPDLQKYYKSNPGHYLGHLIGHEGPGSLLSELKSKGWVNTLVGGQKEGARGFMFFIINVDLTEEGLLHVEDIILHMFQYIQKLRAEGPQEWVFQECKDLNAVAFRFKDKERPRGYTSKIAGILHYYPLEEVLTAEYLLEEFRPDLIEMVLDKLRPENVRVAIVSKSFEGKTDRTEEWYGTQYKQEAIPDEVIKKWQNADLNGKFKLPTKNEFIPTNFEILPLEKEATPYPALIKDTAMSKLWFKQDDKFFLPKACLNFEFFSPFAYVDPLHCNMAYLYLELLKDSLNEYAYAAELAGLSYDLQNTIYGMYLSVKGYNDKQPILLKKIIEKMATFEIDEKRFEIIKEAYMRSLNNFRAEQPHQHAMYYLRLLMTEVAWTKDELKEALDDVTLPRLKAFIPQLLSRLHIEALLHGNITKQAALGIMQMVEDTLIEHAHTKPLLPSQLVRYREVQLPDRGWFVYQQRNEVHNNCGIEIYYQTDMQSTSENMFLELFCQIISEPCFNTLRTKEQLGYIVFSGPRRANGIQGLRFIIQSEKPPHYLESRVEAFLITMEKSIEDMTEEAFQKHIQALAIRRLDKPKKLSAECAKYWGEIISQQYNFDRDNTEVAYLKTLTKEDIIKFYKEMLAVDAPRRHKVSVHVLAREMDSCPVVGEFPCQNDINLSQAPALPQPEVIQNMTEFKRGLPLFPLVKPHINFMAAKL
# [16] = biological target: Induced myeloid leukemia cell differentiation protein Mcl-1 (Homo sapiens, UniProt Q07820); assay: MCL1-BIM BH3 interaction inhibitors, dose response, biochemical, fluorescence polarization, BIM-BH3 peptide, 1536-well (AID 2217)
# [17] = biological target: Polyadenylate-binding protein 1 (Homo sapiens, UniProt P11940); assay: PABP1 MLLE–PAM2 binding inhibitor potency, dose response, biochemical, fluorescence polarization, FITC-PAM2 peptide (AID 602259); type: functional; conditions: read-out: IC50_Mean
# [18] = biological target: Intestinal-type alkaline phosphatase (Mus musculus, UniProt P24822); assay: PubChem AID 488874; type: functional
# [19] = system: Jurkat; assay: antigen receptor-induced NF-kB inhibitors, dose response, Jurkat, luciferase reporter, luminescence, B- and T-cell (AID 489004); type: functional, cell-based; conditions: Homo sapiens;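 also: NF-kB luciferase reporter Jurkat cells stimulated with PMA plus ionomycin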
# [20] = cytotoxicity in HEK-293T NF-kB-Luc cells, dose response, cytotoxicity control for B/T-cell NF-kB inhibitor project, cell-based, uHTS hits (AID 489019); type: functional;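 also: IC50 reflects cytotoxicity as loss of cell viability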
# [21] = biological target: T2, Rac GTPase-activating protein 1 (Homo sapiens, UniProt Q9H0H5); assay: MgcRacGAP GTPase-activating activity inhibitors, confirmation, biochemical, ADP Hunter fluorescence, primary and confirmatory (AID 624330); type: functional
# T2 sequence (Q9H0H5 whole entry): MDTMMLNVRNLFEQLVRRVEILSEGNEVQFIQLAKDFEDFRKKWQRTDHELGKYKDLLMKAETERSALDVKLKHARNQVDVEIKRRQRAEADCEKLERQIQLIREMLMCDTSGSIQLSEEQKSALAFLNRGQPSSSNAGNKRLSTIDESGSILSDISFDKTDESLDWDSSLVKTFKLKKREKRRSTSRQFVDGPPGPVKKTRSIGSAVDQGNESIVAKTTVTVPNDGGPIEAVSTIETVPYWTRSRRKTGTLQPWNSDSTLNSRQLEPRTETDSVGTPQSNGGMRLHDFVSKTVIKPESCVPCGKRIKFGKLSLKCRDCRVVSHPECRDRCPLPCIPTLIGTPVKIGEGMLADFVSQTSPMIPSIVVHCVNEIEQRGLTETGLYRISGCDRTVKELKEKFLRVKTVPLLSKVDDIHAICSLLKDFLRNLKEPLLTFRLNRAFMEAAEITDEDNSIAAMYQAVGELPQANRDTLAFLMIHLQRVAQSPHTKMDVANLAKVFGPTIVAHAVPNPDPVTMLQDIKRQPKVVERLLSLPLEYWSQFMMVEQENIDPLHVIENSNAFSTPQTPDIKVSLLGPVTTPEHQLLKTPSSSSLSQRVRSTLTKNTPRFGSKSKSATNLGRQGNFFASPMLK
# Protein kinase C theta type, sequence (Q04759 whole entry): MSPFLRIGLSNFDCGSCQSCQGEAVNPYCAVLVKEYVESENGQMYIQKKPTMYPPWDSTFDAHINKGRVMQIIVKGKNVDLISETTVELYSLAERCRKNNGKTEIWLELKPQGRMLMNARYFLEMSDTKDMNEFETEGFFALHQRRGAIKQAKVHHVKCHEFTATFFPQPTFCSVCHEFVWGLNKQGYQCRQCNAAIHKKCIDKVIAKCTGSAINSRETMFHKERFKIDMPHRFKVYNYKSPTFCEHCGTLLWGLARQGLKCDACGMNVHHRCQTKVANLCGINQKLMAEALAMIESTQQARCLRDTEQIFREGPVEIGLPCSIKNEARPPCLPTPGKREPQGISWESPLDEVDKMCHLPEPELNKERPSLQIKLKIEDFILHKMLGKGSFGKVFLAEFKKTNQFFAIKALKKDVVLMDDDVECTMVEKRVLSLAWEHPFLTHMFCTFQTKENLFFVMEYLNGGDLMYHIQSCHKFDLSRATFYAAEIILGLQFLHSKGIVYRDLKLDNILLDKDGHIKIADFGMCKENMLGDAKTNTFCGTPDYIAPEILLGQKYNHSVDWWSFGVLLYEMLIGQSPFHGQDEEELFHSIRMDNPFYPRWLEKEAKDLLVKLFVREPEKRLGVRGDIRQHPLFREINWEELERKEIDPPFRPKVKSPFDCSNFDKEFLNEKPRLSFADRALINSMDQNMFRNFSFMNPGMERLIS
# Serine/threonine-protein kinase pim-1, sequence (P11309 whole entry): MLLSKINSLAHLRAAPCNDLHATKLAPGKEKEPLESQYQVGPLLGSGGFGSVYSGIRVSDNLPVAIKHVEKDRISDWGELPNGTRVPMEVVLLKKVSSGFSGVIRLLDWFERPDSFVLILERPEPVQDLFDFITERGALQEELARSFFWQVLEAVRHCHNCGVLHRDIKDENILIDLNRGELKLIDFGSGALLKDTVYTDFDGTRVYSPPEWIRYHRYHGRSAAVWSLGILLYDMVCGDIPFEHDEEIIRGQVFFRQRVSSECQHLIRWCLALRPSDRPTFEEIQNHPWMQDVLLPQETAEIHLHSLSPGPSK
# Cyclin-dependent kinase 8, sequence (P49336 whole entry): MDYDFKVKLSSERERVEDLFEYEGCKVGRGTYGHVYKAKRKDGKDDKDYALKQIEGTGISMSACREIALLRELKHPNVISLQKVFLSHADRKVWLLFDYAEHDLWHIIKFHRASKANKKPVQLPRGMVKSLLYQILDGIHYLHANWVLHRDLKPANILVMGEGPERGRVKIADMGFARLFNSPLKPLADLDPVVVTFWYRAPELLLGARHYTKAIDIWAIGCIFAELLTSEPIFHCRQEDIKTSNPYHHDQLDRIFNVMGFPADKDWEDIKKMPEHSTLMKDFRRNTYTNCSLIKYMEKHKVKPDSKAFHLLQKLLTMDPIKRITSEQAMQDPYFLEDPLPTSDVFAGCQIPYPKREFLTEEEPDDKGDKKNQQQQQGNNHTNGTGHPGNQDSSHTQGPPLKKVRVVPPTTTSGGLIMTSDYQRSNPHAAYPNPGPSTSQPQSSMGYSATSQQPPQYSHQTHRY
# MAP kinase-activated protein kinase 3, sequence (Q16644 whole entry): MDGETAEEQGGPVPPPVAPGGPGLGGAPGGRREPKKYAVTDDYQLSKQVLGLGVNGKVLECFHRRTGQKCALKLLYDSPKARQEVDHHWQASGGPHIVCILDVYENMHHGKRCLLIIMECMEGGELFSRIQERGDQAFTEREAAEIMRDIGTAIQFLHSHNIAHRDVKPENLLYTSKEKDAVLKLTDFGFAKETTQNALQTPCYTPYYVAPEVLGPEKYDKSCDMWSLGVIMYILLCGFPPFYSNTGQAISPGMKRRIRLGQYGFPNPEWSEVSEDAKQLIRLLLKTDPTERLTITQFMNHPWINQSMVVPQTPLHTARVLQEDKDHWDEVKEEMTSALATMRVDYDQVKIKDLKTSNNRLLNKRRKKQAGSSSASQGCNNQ
# Serine/threonine-protein kinase Nek4, sequence (P51957 whole entry): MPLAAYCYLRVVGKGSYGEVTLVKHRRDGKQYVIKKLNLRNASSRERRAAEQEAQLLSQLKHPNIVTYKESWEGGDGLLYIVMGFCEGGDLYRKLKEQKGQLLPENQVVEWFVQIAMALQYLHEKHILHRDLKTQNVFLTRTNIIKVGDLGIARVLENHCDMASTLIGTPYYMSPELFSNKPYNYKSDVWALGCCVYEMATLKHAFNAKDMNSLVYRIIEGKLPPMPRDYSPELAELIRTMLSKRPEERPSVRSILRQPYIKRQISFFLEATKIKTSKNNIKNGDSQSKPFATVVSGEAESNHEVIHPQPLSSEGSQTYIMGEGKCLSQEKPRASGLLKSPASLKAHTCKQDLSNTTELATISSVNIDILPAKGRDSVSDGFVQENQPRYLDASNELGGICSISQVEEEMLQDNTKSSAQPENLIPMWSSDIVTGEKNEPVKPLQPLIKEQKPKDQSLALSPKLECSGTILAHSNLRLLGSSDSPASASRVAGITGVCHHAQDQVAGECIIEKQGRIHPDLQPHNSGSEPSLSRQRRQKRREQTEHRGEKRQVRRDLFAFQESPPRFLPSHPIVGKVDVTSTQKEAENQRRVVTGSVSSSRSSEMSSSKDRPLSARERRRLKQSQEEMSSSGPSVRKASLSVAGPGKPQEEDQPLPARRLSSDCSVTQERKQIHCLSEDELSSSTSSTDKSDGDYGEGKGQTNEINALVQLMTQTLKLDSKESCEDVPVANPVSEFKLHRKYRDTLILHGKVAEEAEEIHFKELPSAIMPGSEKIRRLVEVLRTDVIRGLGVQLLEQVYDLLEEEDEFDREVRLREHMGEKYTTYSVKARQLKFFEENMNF
# CAAX prenyl protease 1, sequence (P47154 whole entry): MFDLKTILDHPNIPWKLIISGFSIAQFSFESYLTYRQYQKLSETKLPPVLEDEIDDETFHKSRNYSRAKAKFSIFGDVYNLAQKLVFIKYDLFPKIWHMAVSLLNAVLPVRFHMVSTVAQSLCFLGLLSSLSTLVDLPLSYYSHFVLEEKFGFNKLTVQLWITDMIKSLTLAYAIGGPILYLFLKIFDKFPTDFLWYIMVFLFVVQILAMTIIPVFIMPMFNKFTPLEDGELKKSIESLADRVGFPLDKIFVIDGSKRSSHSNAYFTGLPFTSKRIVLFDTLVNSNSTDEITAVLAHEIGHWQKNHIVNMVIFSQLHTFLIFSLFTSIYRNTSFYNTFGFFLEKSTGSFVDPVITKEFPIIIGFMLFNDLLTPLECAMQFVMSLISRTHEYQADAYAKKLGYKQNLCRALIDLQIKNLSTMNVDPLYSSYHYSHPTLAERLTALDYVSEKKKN
# Dual specificity protein kinase CLK4, sequence (Q9HAZ1 whole entry): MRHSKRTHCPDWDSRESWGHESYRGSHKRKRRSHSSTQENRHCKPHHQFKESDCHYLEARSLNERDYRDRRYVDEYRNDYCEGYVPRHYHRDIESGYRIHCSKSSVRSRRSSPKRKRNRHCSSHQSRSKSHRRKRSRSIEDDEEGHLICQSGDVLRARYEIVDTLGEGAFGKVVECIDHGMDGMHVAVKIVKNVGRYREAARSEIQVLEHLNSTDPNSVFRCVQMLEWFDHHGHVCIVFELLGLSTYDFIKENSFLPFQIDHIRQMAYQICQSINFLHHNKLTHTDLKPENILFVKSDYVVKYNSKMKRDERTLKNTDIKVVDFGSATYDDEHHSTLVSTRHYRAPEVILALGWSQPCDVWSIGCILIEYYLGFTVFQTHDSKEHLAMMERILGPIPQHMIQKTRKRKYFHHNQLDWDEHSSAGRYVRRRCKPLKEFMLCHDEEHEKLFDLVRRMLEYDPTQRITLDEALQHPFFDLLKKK
# Intestinal-type alkaline phosphatase, sequence (P24822 whole entry): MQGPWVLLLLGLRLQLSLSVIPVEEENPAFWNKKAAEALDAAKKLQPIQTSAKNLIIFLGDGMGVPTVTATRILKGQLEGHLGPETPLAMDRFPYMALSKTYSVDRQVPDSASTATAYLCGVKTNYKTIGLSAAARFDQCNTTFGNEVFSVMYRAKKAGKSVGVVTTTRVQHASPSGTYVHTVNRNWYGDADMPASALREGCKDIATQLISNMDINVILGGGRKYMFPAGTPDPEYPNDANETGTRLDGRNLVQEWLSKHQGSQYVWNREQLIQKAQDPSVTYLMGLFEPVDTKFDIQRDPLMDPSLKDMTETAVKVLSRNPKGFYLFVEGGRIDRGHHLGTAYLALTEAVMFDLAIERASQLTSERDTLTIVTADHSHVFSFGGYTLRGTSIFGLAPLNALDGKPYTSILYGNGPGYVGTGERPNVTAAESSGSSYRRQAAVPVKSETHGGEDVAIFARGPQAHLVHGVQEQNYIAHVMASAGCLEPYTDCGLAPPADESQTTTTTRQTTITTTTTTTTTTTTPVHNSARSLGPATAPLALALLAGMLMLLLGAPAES
# Induced myeloid leukemia cell differentiation protein Mcl-1, sequence (Q07820 whole entry): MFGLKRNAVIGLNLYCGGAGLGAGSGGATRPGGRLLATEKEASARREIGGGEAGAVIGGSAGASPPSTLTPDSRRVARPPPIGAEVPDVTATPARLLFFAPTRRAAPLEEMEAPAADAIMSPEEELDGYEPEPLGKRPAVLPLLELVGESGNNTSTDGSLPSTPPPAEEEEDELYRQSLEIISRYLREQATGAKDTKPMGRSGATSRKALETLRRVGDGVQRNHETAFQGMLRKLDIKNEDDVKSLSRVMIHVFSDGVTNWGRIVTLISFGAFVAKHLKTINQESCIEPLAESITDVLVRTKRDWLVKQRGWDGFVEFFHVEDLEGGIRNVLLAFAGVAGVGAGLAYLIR
# Cyclin-dependent kinase 7, sequence (P50613 whole entry): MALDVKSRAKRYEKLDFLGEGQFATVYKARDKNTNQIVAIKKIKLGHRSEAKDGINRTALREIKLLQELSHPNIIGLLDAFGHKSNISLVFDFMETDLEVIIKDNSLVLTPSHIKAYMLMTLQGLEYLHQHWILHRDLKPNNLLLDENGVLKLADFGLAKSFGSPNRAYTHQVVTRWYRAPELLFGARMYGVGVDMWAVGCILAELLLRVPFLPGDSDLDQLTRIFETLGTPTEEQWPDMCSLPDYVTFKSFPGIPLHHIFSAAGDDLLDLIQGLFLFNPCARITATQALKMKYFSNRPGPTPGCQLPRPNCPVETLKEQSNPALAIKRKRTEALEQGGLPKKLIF
smiles,measurement,setting,value
CN1CCN(c2nc(C3=C(c4c[nH]c5ccccc45)C(=O)NC3=O)c3ccccc3n2)CC1 [SOTRASTAURIN],Ki,[1],0.000631 µM (active)
same,Ki,[2],> 10 µM (inactive)
same,Ki,[3],0.158 µM (active)
same,Ki,[4],> 3.98 µM (inactive)
same,Ki,[5],> 3.16 µM (inactive)
same,Ki,[6],> 10 µM (inactive)
same,Ki,[7],0.00794 µM (active)
same,Ki,[8],> 6.31 µM (inactive)
same,Ki,[9],> 3.16 µM (inactive)
same,Ki,[10],> 3.98 µM (inactive)
same,Ki,[11],> 3.98 µM (inactive)
same,Ki,[12],> 5.01 µM (inactive)
same,Ki,[13],> 3.98 µM (inactive)
CCCCCCCCCCOC(=O)C[n+]1c(COc2ccc(C)cc2)n(C)c2ccccc21,AC50,[14],7.21 µM (active)
same,EC50,[15],16.9 µM (inactive)
CC[C@@H](CO)NC(=O)[C@@H]1C=C2c3cccc4c3c(cn4C)C[C@H]2N(C)C1 [METHYSERGIDE MALEATE],IC50,[16],20.4 µM (not active)
same,IC50,[17],32.2 µM (inactive)
CCN1/C(=C\c2ccc3ccccc3[n+]2CC)Sc2cc(C)ccc21,IC50,[18],20.8 µM (active)
same,IC50,[19],15.5 µM (active)
same,IC50,[20],> 80 µM (inactive)
same,IC50,[21],81.3 µM (active)
